How the values were obtained:
[1] = biological target: T1, full length human TREX1 (Homo sapiens, UniProt Q9NSU2); assay: TREX1 Biochemical Assay (fluorescence, dsDNA substrate degradation); conditions: 150 pM TREX1, 60 nM dsDNA substrate, 25 minutes at room temperature
T1 construct: N-terminally His-Tev tagged full length human TREX1; His-TEV (His tag with TEV site) (N); made in house; host or cells: E. coli
T1 sequence (Q9NSU2 1-314): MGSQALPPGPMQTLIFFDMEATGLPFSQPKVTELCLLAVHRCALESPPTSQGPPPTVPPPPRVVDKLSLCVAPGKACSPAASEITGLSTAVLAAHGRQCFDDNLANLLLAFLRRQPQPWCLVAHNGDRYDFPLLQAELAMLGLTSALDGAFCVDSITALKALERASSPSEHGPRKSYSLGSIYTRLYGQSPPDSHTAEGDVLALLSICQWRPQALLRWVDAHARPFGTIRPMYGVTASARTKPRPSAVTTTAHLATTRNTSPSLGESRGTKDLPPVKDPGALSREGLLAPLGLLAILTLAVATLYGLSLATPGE
Protocol: Degradation of the dsDNA liberates free fluorophore to produce a fluorescent signal. Specifically, 7.5 μL of N-terminally His-Tev tagged full length human TREX1 (expressed in E. coli and purified in house) in reaction buffer (50 mM Tris (pH 7.4), 150 mM NaCl, 2 mM DTT, 0.1 mg/mL BSA, 0.01% (v/v) Tween-20 and 100 mM MgCl2) was added to a 384-well Black ProxiPlate Plus (Perkin Elmer) which already contained compound (150 nL) at varying concentrations as a 10 point dose-response in DMSO. To this was added 7.5 μL of dsDNA substrate (Strand A: 5′ TEX615/GCT AGG CAG 3′; Strand B: 5′ CTG CCT AGC/IAbRQSp (Integrated DNA Technologies)) in reaction buffer. Final concentrations were 150 pM TREX1, 60 nM dsDNA substrate in reaction buffer with 1.0% DMSO (v/v). After 25 minutes at room temperature, reactions were quenched by the addition of 5 μL of stop buffer (same as reaction buffer plus 200 mM EDTA). Final concentrations in the quenched reaction were 112.5 pM TREX1, 45 nM DNA and 50 mM EDTA in a volume of 20 μL. After a 5-minute incubation at room temperature, plates were read in a laser sourced Envision (Perkin-Elmer), measuring fluorescence at 615 nm following excitation w/570 nm light. IC50 values were calculated by comparing the measured fluorescence at 615 nm ratio relative to control wells pre-quenched w/stop buffer (100% inhibition) and no inhibitor (0% inhibition) controls as using non-linear least square four parameter fits and either Genedata or GraphPad Prism (GraphPad Software, Inc.).

[2] = biological target: T2, human TREX2 (residues M44-A279) (Homo sapiens, UniProt Q9BQ50); assay: TREX2 Biochemical Assay (fluorescence, dsDNA substrate degradation); conditions: 2.5 nM TREX2, 60 nM dsDNA substrate, 25 minutes at room temperature
T2 construct: human TREX2 (residues M44-A279, expressed in E. coli); His-TEV (His tag with TEV site) (N); made in house; host or cells: E. coli
T2 sequence (Q9BQ50 44-279 isoform Q9BQ50-1): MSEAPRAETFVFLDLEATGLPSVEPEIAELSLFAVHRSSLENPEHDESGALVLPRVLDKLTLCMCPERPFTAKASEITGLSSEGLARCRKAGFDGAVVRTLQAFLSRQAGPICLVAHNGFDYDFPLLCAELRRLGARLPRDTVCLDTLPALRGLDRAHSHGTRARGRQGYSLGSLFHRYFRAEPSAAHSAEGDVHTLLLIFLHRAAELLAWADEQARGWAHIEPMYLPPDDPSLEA
Protocol: Degradation of the dsDNA liberates free fluorophore to produce a fluorescent signal. Specifically, 7.5 μL of N-terminally His-Tev tagged human TREX2 (residues M44-A279, expressed in E. coli and purified in house) in reaction buffer (50 mM Tris (pH 7.4), 150 mM NaCl, 2 mM DTT, 0.1 mg/mL BSA, 0.01% (v/v) Tween-20 and 100 mM MgCl2) was added to a 384-well Black ProxiPlate Plus (Perkin Elmer) which already contained compound (150 nL) at varying concentrations as a 10 point dose-response in DMSO. To this was added 7.5 μL of dsDNA substrate (Strand A: 5′ TEX615/GCT AGG CAG 3′; Strand B: 5′ CTG CCT AGC/IAbRQSp (IDT)) in reaction buffer. Final concentrations were 2.5 nM TREX2, 60 nM dsDNA substrate in reaction buffer with 1.0% DMSO (v/v). After 25 minutes at room temperature, reactions were quenched by the addition of 5 μL of stop buffer (same as reaction buffer plus 200 mM EDTA). Final concentrations in the quenched reaction mixture were […] TREX2, 45 nM DNA and 50 mM EDTA in a volume of 20 μL. After a 5-minute incubation at room temperature, plates were read in a laser sourced Envision (Perkin-Elmer), measuring fluorescence at 615 nm following excitation w/570 nm light. IC50 values were calculated by comparing the measured fluorescence at 615 nm ratio relative to control wells pre-quenched w/stop buffer (100% inhibition) and no inhibitor (0% inhibition) controls as using non-linear least square four parameter fits and either Genedata or GraphPad Prism (GraphPad Software, Inc.).

[3] = tested on: HCT116 dual cells; assay: HCT116 Cell Assay (Lucia luciferase reporter of Type I interferon induction); assay type: cell-based, human; conditions: pBR322/BstNI DNA transfection, Lucia luciferase at 48 h, relative to 10 uM compound 39
Source text: HCT116 dual cells (Invivogen, San Diego, Calif., USA) are derived from the human HCT116 colorectal carcinoma cell line. Cells have been selected for the stable integration of SEAP and Luciferase reporter genes, which expression is under the control of 5 tandem response elements for NF-KB/AP1 and STAT1/STAT2, respectively. The cell line was used to monitor Type I interferon induction and subsequent signaling by measuring the activity of the Lucia luciferase secreted in the culture medium.
HCT116 cells were plated in 96-well plate(s) at 40,000 cells/well in 100 uL DMEM supplemented with 10% FBS and 25 mM Hepes (pH 7.2-7.5). After overnight settling, cells were treated with TREX1i for 4 h (maximum DMSO fraction was 0.1%) before 1.25 ug/mL pBR322/BstNI restriction digest (New England Biolabs, Ipswich, Mass., USA) was transfected with Lipofectamine LTX (ThermoFisher, Grand Island, N.Y., USA), according to product manual recommendations. Briefly, Lipofectamine LTX (0.4 uL/well) was diluted in OptiMEM (5 uL/well). pBR322/BstNI (100 ng/well) was diluted in OptiMEM (5 uL/well) before Plus reagent (0.1 uL/100 ng DNA) was added. After 5 min incubation at room temperature, the DNA mixture was mixed dropwise with the diluted Lipofectamine LTX. After an additional 10 min incubation, the transfection mix (10 uL/well) was added to the cells. Cells were maintained at 37° C. for 48 h before monitoring the Lucia Luciferase activity from the cell culture medium. EC50 values were calculated by comparing the measured luminescence relative to 10 uM compound 39 (100% inhibition) and no inhibitor (0% inhibition) controls using non-linear least-squares four parameter fits in either Genedata Screener or GraphPad Prism (GraphPad Software, Inc.).

[4] = Homo sapiens, HCT-116, 4 h pre-treatment

| Structure (SMILES) | IC50 [1] | IC50 [2] | EC50 ([3]; 4 h pre-treatment) | EC50 [3, 4] |
| --- | --- | --- | --- | --- |
| CN(Cc1ccc(Cl)cc1Cl)c1nc(C(=O)Nc2cnoc2)c(O)c(=O)n1C [Example 6] | < 0.1 µM | 1 to 10 µM |  | 1 to 10 µM |
| CN(Cc1ccc(Cl)c(Cl)c1)c1nc(C(=O)Nc2cnoc2)c(O)c(=O)n1C [Example 7] | < 0.1 µM | 1 to 10 µM |  | 1 to 10 µM |
| CN(Cc1cccc(Cl)c1)c1nc(C(=O)Nc2cnoc2)c(O)c(=O)n1C [Example 8] | < 0.1 µM | 1 to 10 µM |  | 1 to 10 µM |
| CN(Cc1ccc(Cl)cc1)c1nc(C(=O)Nc2cnoc2)c(O)c(=O)n1C [Example 9] | < 0.1 µM | 10 to 100 µM |  | 10 to 100 µM |
| CN(Cc1cccc(C(F)(F)F)c1)c1nc(C(=O)Nc2cnoc2)c(O)c(=O)n1C [Example 10] | < 0.1 µM | 1 to 10 µM |  | 10 to 100 µM |
| CN(Cc1ccccc1C(F)(F)F)c1nc(C(=O)Nc2cnoc2)c(O)c(=O)n1C [Example 11] | < 0.1 µM | 1 to 10 µM |  | 1 to 10 µM |
| CCN(Cc1ccccc1)c1nc(C(=O)Nc2cnoc2)c(O)c(=O)n1C [Example 13, 2-(benzyl(ethyl)amino)-5-hydroxy-N-(isoxazol-4-yl)-1-methyl-6-oxo-1,6-dihydropyrimidine-4-carboxamide] | < 0.1 µM | 1 to 10 µM |  | 10 to 100 µM |
| CN(Cc1ccc2ccccc2c1)c1nc(C(=O)Nc2cnoc2)c(O)c(=O)n1C [Example 14] | < 0.1 µM | 1 to 10 µM |  | 10 to 100 µM |
| CN(Cc1cccc2ccccc12)c1nc(C(=O)Nc2cnoc2)c(O)c(=O)n1C [Example 15] | < 0.1 µM | 1 to 10 µM |  | 1 to 10 µM |
| Cn1c(N(CCOc2ccccc2)Cc2ccccc2)nc(C(=O)Nc2cnoc2)c(O)c1=O [Example 16] | < 0.1 µM | < 1 µM |  | 10 to 100 µM |
| CN(Cc1ccccc1-c1ccccc1)c1nc(C(=O)Nc2cnoc2)c(O)c(=O)n1C [Example 18] | < 0.1 µM | 1 to 10 µM |  | 10 to 100 µM |
| CN(Cc1cccc(-c2cnn(C)c2)c1)c1nc(C(=O)Nc2cnoc2)c(O)c(=O)n1C [Example 19] | < 0.1 µM | 1 to 10 µM |  | 10 to 100 µM |
| CN(Cc1ccccn1)c1nc(C(=O)Nc2cnoc2)c(O)c(=O)n1C [Example 22] | 0.1 to 1 µM | 1 to 10 µM |  | 10 to 100 µM |
| CN(Cc1ccc(-c2cnn(C)c2)cc1)c1nc(C(=O)Nc2cnoc2)c(O)c(=O)n1C [Example 25] | < 0.1 µM | 1 to 10 µM |  | 10 to 100 µM |

Continued, values first:

| IC50 [1] | IC50 [2] | EC50 ([3]; 4 h pre-treatment) | EC50 [3, 4] | Structure (SMILES) |
| --- | --- | --- | --- | --- |
| < 0.1 µM | < 1 µM | < 1 µM |  | CN(c1nc(C(=O)Nc2cnoc2)c(O)c(=O)n1C)C(c1ccccc1)c1cc(F)ccc1Cl (single isomer, unassigned) [Example 88] |
| < 0.1 µM | < 1 µM |  | < 1 µM | Cc1cc(C(c2ccccc2Cl)N(C)c2nc(C(=O)Nc3cnoc3)c(O)c(=O)n2C)ccn1 (single isomer, unassigned) [Example 89] |
| < 0.1 µM | < 1 µM | 1 to 10 µM |  | Cc1cc(C(c2ccccc2Cl)N(C)c2nc(C(=O)Nc3cnoc3)c(O)c(=O)n2C)ccn1 (single isomer, unassigned) [Example 90] |
| < 0.1 µM | < 1 µM |  | 1 to 10 µM | CCN(c1nc(C(=O)Nc2cnoc2)c(O)c(=O)n1C)C(c1ccccc1)c1ccccc1Cl (single isomer, unassigned) [Example 91] |
| < 0.1 µM | < 1 µM | 1 to 10 µM |  | CCN(c1nc(C(=O)Nc2cnoc2)c(O)c(=O)n1C)C(c1ccccc1)c1ccccc1Cl (single isomer, unassigned) [Example 92] |
| < 0.1 µM | 1 to 10 µM |  | 1 to 10 µM | CN(C)C(=O)c1ccc(C(c2ccccc2)N(C)c2nc(C(=O)Nc3cnoc3)c(O)c(=O)n2C)c(Cl)c1 (single isomer, unassigned) [Example 93] |
| < 0.1 µM | < 1 µM | < 1 µM |  | CN(C)C(=O)c1ccc(C(c2ccccc2)N(C)c2nc(C(=O)Nc3cnoc3)c(O)c(=O)n2C)c(Cl)c1 (single isomer, unassigned) [Example 94] |
| < 0.1 µM | < 1 µM |  | < 1 µM | CN(c1nc(C(=O)Nc2cnoc2)c(O)c(=O)n1C)C(c1cccc(C#N)c1)c1ccccc1Cl (single isomer, unassigned) [Example 95] |
| < 0.1 µM | < 1 µM | 1 to 10 µM |  | CN(c1nc(C(=O)Nc2cnoc2)c(O)c(=O)n1C)C(c1cccc(C#N)c1)c1ccccc1Cl (single isomer, unassigned) [Example 96] |
| < 0.1 µM | 1 to 10 µM |  | 1 to 10 µM | CN(Cc1ccccc1)c1nc(C(=O)Nc2cnoc2)c(O)c(=O)n1C [Example 2] |
| < 0.1 µM | < 1 µM |  | 1 to 10 µM | CN(Cc1c(Cl)cccc1Cl)c1nc(C(=O)Nc2cnoc2)c(O)c(=O)n1C [Example 4] |
| < 0.1 µM | 1 to 10 µM |  | 1 to 10 µM | CN(Cc1cc(Cl)ccc1Cl)c1nc(C(=O)Nc2cnoc2)c(O)c(=O)n1C [Example 5] |

Reference: patent US20220289728A1, “MODULATORS OF TREX1” (Constellation Pharmaceuticals, Inc., priority 2019, published 2022)
